The source of these data is US20230322846A9, “NEUROACTIVE STEROIDS AND THEIR METHODS OF USE” (SAGE THERAPEUTICS, INC., priority 2018, published 2023).

A value given as a limit tells only on which side of the number the result lay.

This experiment addresses [35S]-TBPS binding, rat brain cortical membranes. Put plainly: Steroid inhibition of [35S]-TBPS binding. Particulars: 3 nM [35S]-TBPS, in the presence of 5 mM GABA. In short, it runs like this: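 Rat cortical P2 membranes incubated 90 min at room temperature with 3 nM [35S]-TBPS, […] and test compound (0.5% DMSO final) in NaCl/Na–K phosphate pH 7.4; nonspecific binding with […]. Filter-bound radioactivity counted; IC50 and Imax from nonlinear fits, mean ± SEM.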
In the case of `C[C@@H](Cn1cc(C#N)cn1)[C@H]1CC[C@H]2[C@@H]3CC[C@@H]4C[C@](C)(O)CC[C@]4(C)[C@H]3CC[C@]12C` [Example 305, 1-((R)-2-((3R,5R,8R,9S,10S,13S,14S,17R)-3-hydroxy-3,10,13-trimethylhexadecahydro-1H-cyclopenta[a]phenanthren-17-yl)propyl)-1H-pyrazole-4-carbonitrile], the IC50 is < 100 nM. On to `C[C@H](Cn1cc(C#N)cn1)[C@H]1CC[C@H]2[C@@H]3CC[C@@H]4C[C@](C)(O)CC[C@]4(C)[C@H]3CC[C@]12C` [Example 306, 1-((S)-2-((3R,5R,8R,9S,10S,13S,14S,17R)-3-hydroxy-3,10,13-trimethylhexadecahydro-1H-cyclopenta[a]phenanthren-17-yl)propyl)-1H-pyrazole-4-carbonitrile], for which the IC50 is < 100 nM. As to `CCC[C@@]1(O)CC[C@@]2(C)[C@H](CC[C@@H]3[C@@H]2CC[C@]2(C)[C@@H]([C@@H](C)Cn4cc(C#N)cn4)CC[C@@H]32)C1` [Example 307, 1-((R)-2-((3R,5R,8R,9S,10S,13S,14S,17R)-3-hydroxy-10,13-dimethyl-3-propylhexadecahydro-1H-cyclopenta[a]phenanthren-17-yl)propyl)-1H-pyrazole-4-carbonitrile], the IC50 is < 100 nM. `CCC[C@@]1(O)CC[C@@]2(C)[C@H](CC[C@@H]3[C@@H]2CC[C@]2(C)[C@@H]([C@H](C)Cn4cc(C#N)cn4)CC[C@@H]32)C1` [Example 308, 1-((S)-2-((3R,5R,8R,9S,10S,13S,14S,17R)-3-hydroxy-10,13-dimethyl-3-propylhexadecahydro-1H-cyclopenta[a]phenanthren-17-yl)propyl)-1H-pyrazole-4-carbonitrile]: the IC50 was < 100 nM.

For the compound `CCC[C@@]1(O)CC[C@@]2(C)[C@H](CC[C@@H]3[C@@H]2[C@@H](O)C[C@]2(C)[C@@H]([C@@H](C)Cn4cc(C#N)cn4)CC[C@@H]32)C1` [Example 309, 1-((R)-2-((3R,5R,8S,9S,10S,11S,13S,14S,17R)-3,11-dihydroxy-10,13-dimethyl-3-propylhexadecahydro-1H-cyclopenta[a]phenanthren-17-yl)propyl)-1H-pyrazole-4-carbonitrile], the IC50 was < 100 nM. Turning to `CCC[C@@]1(O)CC[C@@]2(C)[C@H](CC[C@@H]3[C@@H]2[C@@H](O)C[C@]2(C)[C@@H]([C@H](C)Cn4cc(C#N)cn4)CC[C@@H]32)C1` [Example 310, 1-((S)-2-((3R,5R,8S,9S,10S,11S,13S,14S,17R)-3,11-dihydroxy-10,13-dimethyl-3-propylhexadecahydro-1H-cyclopenta[a]phenanthren-17-yl)propyl)-1H-pyrazole-4-carbonitrile], the IC50 is 100 to 1000 nM. For `CCCC[C@@]1(O)CC[C@H]2[C@H](CC[C@@H]3[C@@H]2CC[C@]2(C)[C@@H]([C@H](C)Cn4cc(C#N)cn4)CC[C@@H]32)C1` [Example 312], the IC50 is < 100 nM. On to `CCC[C@@]1(O)CC[C@@]2(C)[C@H](CC[C@@H]3[C@@H]2CC[C@]2(C)[C@@H]([C@@H](C)Cn4nnc(C)n4)CC[C@@H]32)C1` [Example 313, (3R,5R,8R,9S,10S,13S,14S,17R)-10,13-dimethyl-17-((R)-1-(5-methyl-2H-tetrazol-2-yl)propan-2-yl)-3-propylhexadecahydro-1H-cyclopenta[a]phenanthren-3-ol], for which the half-inhibitory concentration (IC50) is < 100 nM. In the case of `CCC[C@@]1(O)CC[C@@]2(C)[C@H](CC[C@@H]3[C@@H]2CC[C@]2(C)[C@@H]([C@H](C)Cn4nnc(C)n4)CC[C@@H]32)C1` [Example 314, (3R,5R,8R,9S,10S,13S,14S,17R)-10,13-dimethyl-17-((S)-1-(5-methyl-2H-tetrazol-2-yl)propan-2-yl)-3-propylhexadecahydro-1H-cyclopenta[a]phenanthren-3-ol] it was 100 to 1000 nM. In the case of `CCC[C@@]1(O)CC[C@@]2(C)[C@H](CC[C@@H]3[C@@H]2CC[C@]2(C)[C@@H]([C@@H](C)Cn4nnnc4C)CC[C@@H]32)C1` [Example 315, (3R,5R,8R,9S,10S,13S,14S,17R)-10,13-dimethyl-17-((R)-1-(5-methyl-1H-tetrazol-1-yl)propan-2-yl)-3-propylhexadecahydro-1H-cyclopenta[a]phenanthren-3-ol] it was < 100 nM; in that of `CCC[C@@]1(O)CC[C@@]2(C)[C@H](CC[C@@H]3[C@@H]2CC[C@]2(C)[C@@H]([C@H](C)Cn4nnnc4C)CC[C@@H]32)C1` [Example 316, (3R,5R,8R,9S,10S,13S,14S,17R)-10,13-dimethyl-17-((S)-1-(5-methyl-1H-tetrazol-1-yl)propan-2-yl)-3-propylhexadecahydro-1H-cyclopenta[a]phenanthren-3-ol], < 100 nM; in that of `CC[C@]12CC[C@H]3[C@@H](CC[C@@H]4C[C@](C)(O)CC[C@@H]43)[C@@H]1CC[C@@H]2[C@@H](C)Cn1cc(C#N)cn1` [Example 317, 1-((R)-2-((3R,5R,8R,9R,10S,13S,14S,17R)-13-ethyl-3-hydroxy-3-methylhexadecahydro-1H-cyclopenta[a]phenanthren-17-yl)propyl)-1H-pyrazole-4-carbonitrile], < 100 nM. Regarding `CC[C@]12CC[C@H]3[C@@H](CC[C@@H]4C[C@](C)(O)CC[C@@H]43)[C@@H]1CC[C@@H]2[C@H](C)Cn1cc(C#N)cn1` [Example 318, 1-((S)-2-((3R,5R,8R,9R,10S,13S,14S,17R)-13-ethyl-3-hydroxy-3-methylhexadecahydro-1H-cyclopenta[a]phenanthren-17-yl)propyl)-1H-pyrazole-4-carbonitrile], the IC50 is < 100 nM. Turning to `CCC[C@@]1(O)CC[C@@]2(COC)[C@H](CC[C@H]3[C@@H]4CC[C@H]([C@@H](C)Cn5nnc(C)n5)[C@@]4(C)CC[C@@H]32)C1` [Example 319, (3R,5R,8S,9S,10R,13S,14S,17R)-10-(methoxymethyl)-13-methyl-17-((R)-1-(5-methyl-2H-tetrazol-2-yl)propan-2-yl)-3-propylhexadecahydro-1H-cyclopenta[a]phenanthren-3-ol], the half-inhibitory concentration (IC50) was < 100 nM.

In the case of `CCC[C@@]1(O)CC[C@@]2(COC)[C@H](CC[C@H]3[C@@H]4CC[C@H]([C@@H](C)Cn5nnnc5C)[C@@]4(C)CC[C@@H]32)C1` [Example 321, (3R,5R,8S,9S,10R,13S,14S,17R)-10-(methoxymethyl)-13-methyl-17-((R)-1-(5-methyl-1H-tetrazol-1-yl)propan-2-yl)-3-propylhexadecahydro-1H-cyclopenta[a]phenanthren-3-ol], the IC50 is < 100 nM. Take `CCC[C@@]1(O)CC[C@@]2(COC)[C@H](CC[C@H]3[C@@H]4CC[C@H]([C@H](C)Cn5nnnc5C)[C@@]4(C)CC[C@@H]32)C1` [Example 322, (3R,5R,8S,9S,10R,13S,14S,17R)-10-(methoxymethyl)-13-methyl-17-((S)-1-(5-methyl-1H-tetrazol-1-yl)propan-2-yl)-3-propylhexadecahydro-1H-cyclopenta[a]phenanthren-3-ol]: the half-maximal inhibitory concentration (IC50) was < 100 nM.
